From patent US8017786B2, “Substituted β-phenyl-α-hydroxy-propanoic acid, synthesis method and use thereof” (Northwest University, priority 2006, dated 2011)

Tested on: anesthetized rats
Assay: Blood pressure and left ventricular function of anesthetized rats
Format: in vivo, rat
Set-up: contractive pressure, change ratio: unit not given here
Experimental: All data were input into PowerLab/8Sp data acquisition and processing system via RM-6000 multi-channel polygraph, and recorded, analyzed and processed by PowerLab/8Sp.
The abdomen was opened 1.5 cm below xiphoid bone to isolate duodenum, a small incision was formed on the duodenum away from blood vessels by ophthalmic scissors, a catheter was inserted and the incision was fixed by suture for administration. After the end of operation and a further waiting period of 30 min, normal data were recorded once the indexes to be monitored were stable.
Test drugs were duodenally administered via the catheter, and the indexes were monitored 5, 15, 30, 60, 90 and 120 min after the administration. The change ratios of the indexes were calculated in accordance with the following formula, and were used for statistic analysis among groups.

[1] = 9 mg/kg duodenal, 60 min after administration
[2] = 9 mg/kg duodenal, 90 min after administration
[3] = 9 mg/kg duodenal, 120 min after administration
[4] = 9 mg/kg duodenal, before administration
[5] = 18 mg/kg duodenal, 5 min after administration
[6] = 18 mg/kg duodenal, 15 min after administration
[7] = 18 mg/kg duodenal, 30 min after administration
[8] = 18 mg/kg duodenal, 60 min after administration
[9] = 18 mg/kg duodenal, 90 min after administration
[10] = 18 mg/kg duodenal, 120 min after administration
[11] = 18 mg/kg duodenal, before administration
[12] = 18 mg/kg, significant at 15, 30, 60, 90 and 120 min

## CC1(C)C2CCC1(C)C(OC(=O)C(O)Cc1ccc(O)c(O)c1)C2 (stereo not drawn) [bornyl salvianate ester, bornyl β-(3,4-dihydroxylphenyl)-α-hydroxylpropionate ester]
[1]
  contractive pressure, change ratio: −12.63 ± 11.39
  diastolic pressure: 59.10 ± 16.07 mmHg
  diastolic pressure, change ratio: −14.30 ± 13.75
  heart rate: 359.61 ± 39.30 beat/min
  heart rate, change ratio: −4.52 ± 7.13
  left intraventricular pressure: 119.77 ± 23.09 mmHg
  left intraventricular pressure, change ratio: −6.84 ± 8.75
  mean arterial pressure: 77.89 ± 18.11 mmHg
  mean arterial pressure, change ratio: −13.46 ± 12.43
[2]
  change-rate of left intraventricular pressure MAX: 5113.5 ± 1356.4 mmHg/s
  change-rate of left intraventricular pressure MAX, change ratio: −6.4 ± 13.2
  change-rate of left intraventricular pressure, -MAX: −3629.7 ± 1013.3 mm/Hg/s
  change-rate of left intraventricular pressure, -MAX, change ratio: −7.2 ± 13.3
  contractive pressure: 120.90 ± 31.83 mmHg
  contractive pressure, change ratio: −8.80 ± 16.65
  diastolic pressure: 63.12 ± 19.81 mmHg
  diastolic pressure, change ratio: −8.83 ± 17.11
  heart rate: 354.38 ± 62.30 beat/min
  heart rate, change ratio: −4.13 ± 17.94
  left intraventricular pressure: 122.40 ± 26.58 mmHg
  left intraventricular pressure, change ratio: −4.88 ± 11.37
  mean arterial pressure: 82.38 ± 23.18 mmHg
  mean arterial pressure, change ratio: −8.77 ± 16.66
[3]
  change-rate of left intraventricular pressure MAX: 4959.8 ± 1399.0 mmHg/s
  change-rate of left intraventricular pressure MAX, change ratio: −9.7 ± 11.2
  change-rate of left intraventricular pressure, -MAX: −3541.7 ± 917.7 mm/Hg/s
  change-rate of left intraventricular pressure, -MAX, change ratio: −9.2 ± 11.3
  contractive pressure: 120.85 ± 32.13 mmHg
  contractive pressure, change ratio: −9.19 ± 14.65
  diastolic pressure: 62.58 ± 22.20 mmHg
  diastolic pressure, change ratio: −10.28 ± 17.60
  heart rate: 354.09 ± 47.98 beat/min
  heart rate, change ratio: −4.62 ± 12.34
  left intraventricular pressure: 121.85 ± 26.36 mmHg
  left intraventricular pressure, change ratio: −5.47 ± 9.76
  mean arterial pressure: 82.00 ± 25.04 mmHg
  mean arterial pressure, change ratio: −9.71 ± 15.95
[4]
  change-rate of left intraventricular pressure MAX: 5435.8 ± 1200.0 mmHg/s
  change-rate of left intraventricular pressure, -MAX: −3881.3 ± 735.6 mm/Hg/s
  contractive pressure: 132.26 ± 20.00 mmHg
  diastolic pressure: 69.21 ± 15.19 mmHg
  heart rate: 373.43 ± 41.28 beat/min
  left intraventricular pressure: 128.29 ± 18.38 mmHg
  mean arterial pressure: 90.23 ± 16.25 mmHg
9 mg/kg, significant at 15 and 60 min
  mean arterial pressure, systolic pressure and diastolic pressure (in words): exhibited a decrease tendency
9 mg/kg, significant at 60 and 120 min
  dp/dt (in words): exhibited a decrease tendency
9 mg/kg, significant at 60 min
  left intraventricular pressure (in words): exhibited a decrease tendency
[5]
  change-rate of left intraventricular pressure MAX: 5694.7 ± 1264.7 mmHg/s
  change-rate of left intraventricular pressure MAX, change ratio: −0.3 ± 9.3
  change-rate of left intraventricular pressure, -MAX: −4103.4 ± 981.2 mm/Hg/s
  change-rate of left intraventricular pressure, -MAX, change ratio: 0.0 ± 7.8
  contractive pressure: 128.34 ± 28.96 mmHg
  contractive pressure, change ratio: −0.06 ± 12.42
  diastolic pressure: 72.55 ± 16.58 mmHg
  diastolic pressure, change ratio: −1.00 ± 14.79
  heart rate: 358.56 ± 44.88 beat/min
  heart rate, change ratio: 0.22 ± 4.94
  left intraventricular pressure: 131.90 ± 18.96 mmHg
  left intraventricular pressure, change ratio: −0.01 ± 7.29
  mean arterial pressure: 91.15 ± 20.31 mmHg
  mean arterial pressure, change ratio: −0.58 ± 13.53
[6]
  change-rate of left intraventricular pressure MAX: 5470.3 ± 1416.7 mmHg/s
  change-rate of left intraventricular pressure MAX, change ratio: −4.7 ± 11.8
  change-rate of left intraventricular pressure, -MAX: −3991.9 ± 948.6 mm/Hg/s
  change-rate of left intraventricular pressure, -MAX, change ratio: −2.4 ± 9.3
  contractive pressure: 120.90 ± 26.54 mmHg
  contractive pressure, change ratio: −5.49 ± 14.53
  diastolic pressure: 68.87 ± 14.57 mmHg
  diastolic pressure, change ratio: −5.45 ± 15.82
  heart rate: 356.00 ± 40.82 beat/min
  heart rate, change ratio: −0.07 ± 9.93
  left intraventricular pressure: 126.28 ± 18.51 mmHg
  left intraventricular pressure, change ratio: −4.15 ± 8.95
  mean arterial pressure: 86.21 ± 18.29 mmHg
  mean arterial pressure, change ratio: −5.52 ± 14.99
[7]
  change-rate of left intraventricular pressure MAX: 5186.9 ± 1177.3 mmHg/s
  change-rate of left intraventricular pressure MAX, change ratio: −8.9 ± 11.5
  change-rate of left intraventricular pressure, -MAX: −3923.8 ± 879.8 mm/Hg/s
  change-rate of left intraventricular pressure, -MAX, change ratio: −3.9 ± 8.2
  contractive pressure: 117.76 ± 22.90 mmHg
  contractive pressure, change ratio: −7.74 ± 12.22
  diastolic pressure: 66.68 ± 11.95 mmHg
  diastolic pressure, change ratio: −7.68 ± 16.90
  heart rate: 348.07 ± 39.21 beat/min
  heart rate, change ratio: −2.01 ± 12.45
  left intraventricular pressure: 124.81 ± 18.94 mmHg
  left intraventricular pressure, change ratio: −5.46 ± 7.09
  mean arterial pressure: 83.71 ± 15.31 mmHg
  mean arterial pressure, change ratio: −7.79 ± 14.45
[8]
  change-rate of left intraventricular pressure MAX: 4905.3 ± 1047.7 mmHg/s
  change-rate of left intraventricular pressure MAX, change ratio: −12.4 ± 18.7
  change-rate of left intraventricular pressure, -MAX: −3744.3 ± 851.5 mm/Hg/s
  change-rate of left intraventricular pressure, -MAX, change ratio: −7.9 ± 14.0
  contractive pressure: 106.97 ± 32.22 mmHg
  contractive pressure, change ratio: −16.34 ± 19.90
  diastolic pressure: 60.98 ± 16.13 mmHg
  diastolic pressure, change ratio: −15.66 ± 21.14
  heart rate: 357.22 ± 47.10 beat/min
  heart rate, change ratio: 0.39 ± 13.05
  left intraventricular pressure: 120.67 ± 23.43 mmHg
  left intraventricular pressure, change ratio: −8.71 ± 11.64
  mean arterial pressure: 76.31 ± 21.36 mmHg
  mean arterial pressure, change ratio: −16.01 ± 20.44
[9]
  change-rate of left intraventricular pressure MAX: 4676.5 ± 941.1 mmHg/s
  change-rate of left intraventricular pressure MAX, change ratio: −16.7 ± 15.5
  change-rate of left intraventricular pressure, -MAX: −3659.3 ± 806.3 mm/Hg/s
  change-rate of left intraventricular pressure, -MAX, change ratio: −9.2 ± 16.9
  contractive pressure: 104.23 ± 32.16 mmHg
  contractive pressure, change ratio: −18.68 ± 18.21
  diastolic pressure: 60.29 ± 15.88 mmHg
  diastolic pressure, change ratio: −16.74 ± 18.37
  heart rate: 355.33 ± 9.61 beat/min
  heart rate, change ratio: −0.44 ± 6.91
  left intraventricular pressure: 117.91 ± 22.68 mmHg
  left intraventricular pressure, change ratio: −10.81 ± 11.60
  mean arterial pressure: 74.94 ± 21.07 mmHg
  mean arterial pressure, change ratio: −17.64 ± 18.17
[10]
  change-rate of left intraventricular pressure MAX: 5012.6 ± 777.5 mmHg/s
  change-rate of left intraventricular pressure MAX, change ratio: −10.9 ± 12.4
  change-rate of left intraventricular pressure, -MAX: −3692.1 ± 863.3 mm/Hg/s
  change-rate of left intraventricular pressure, -MAX, change ratio: −8.8 ± 16.9
  contractive pressure: 113.34 ± 24.47 mmHg
  contractive pressure, change ratio: −10.88 ± 16.04
  diastolic pressure: 61.54 ± 13.73 mmHg
  diastolic pressure, change ratio: −14.64 ± 19.58
  heart rate: 357.68 ± 53.26 beat/min
  heart rate, change ratio: 0.28 ± 12.04
  left intraventricular pressure: 119.85 ± 22.26 mmHg
  left intraventricular pressure, change ratio: −9.13 ± 13.16
  mean arterial pressure: 78.81 ± 17.04 mmHg
  mean arterial pressure, change ratio: −12.96 ± 17.66
[11]
  change-rate of left intraventricular pressure MAX: 5695.0 ± 1086.8 mmHg/s
  change-rate of left intraventricular pressure, -MAX: −4092.0 ± 905.4 mm/Hg/s
  contractive pressure: 128.25 ± 23.86 mmHg
  diastolic pressure: 73.04 ± 11.87 mmHg
  heart rate: 357.28 ± 36.29 beat/min
  left intraventricular pressure: 131.93 ± 16.79 mmHg
  mean arterial pressure: 91.44 ± 15.44 mmHg
[12]
  dp/dt (in words): significantly decreased
  left intraventricular pressure (in words): significantly decreased
18 mg/kg, significant at 15, 60, 90 and 120 min
  mean arterial pressure, systolic pressure and diastolic pressure (in words): significantly decreased
